Consider 14 compounds from PubChem BioAssay (NCI).

SMILES strings stand for the structures.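 In this assay, cells in 96-well plates receive the compound at five concentrations for 48 hours. Endpoints are linearly interpolated between the surrounding concentrations. TGI marks complete inhibition of growth.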

Experiment in all cases: growth of human tumour cells (NCI), 48 h
Experiment [1] concerns UACC-62 melanoma.
For experiment [2], the system named is IGROV1 ovarian.
Experiment [3] concerns SW-620 colon.
Experiment [4] concerns EKVX NSCLC.
Experiment [5] concerns K-562 leukemia.
The subject of experiment [6] is NCI-H460 lung.
Experiment [7] concerns NCI-H226 lung.
For experiment [8], the system named is MCF7 breast.
For experiment [9], the system named is MALME-3M melanoma.
For experiment [10], the system named is A498 renal.
Experiment [11] has as its system A549 NSCLC.
Experiment [12] has as its system MDA-MB-435.
The test system of experiment [13] is ACHN renal.
Experiment [14] deals with UO-31 renal.
For experiment [15], the system named is T-47D breast.
Experiment [16] deals with HOP-62 NSCLC.
The test system of experiment [17] is M14 melanoma.
For experiment [18], the system named is HCC-2998 colon.
Experiment [19] deals with CCRF-CEM leukemia.
For experiment [20], the system named is HT29 colon.

With `Nc1nc(N)nc(-c2cnccn2)n1`, the TGI in experiment [1], in experiment [2], in experiment [3], in [4], in experiment [5] and in experiment [6] was above 100 µM in each case. In addition, the TGI in [7], in experiment [8], in [9], in experiment [10], in [11] and in experiment [12] was above 100 µM in each case. Moreover, the TGI in experiment [13], in experiment [14], in experiment [15], in experiment [16], in experiment [17] and in experiment [18] was above 100 µM in each case. The TGI in experiment [19] was above 100 µM.
Take `C[C@H]1C(OCCOC2O[C@@H]3O[C@@]4(C)CC[C@H]5[C@H](C)CCC([C@H]2C)[C@@]35O4)O[C@@H]2O[C@@]3(C)CC[C@H]4[C@H](C)CCC1[C@@]24O3` (some centres not stated): the TGI was above 100 µM in experiment [1]; 90.6 µM in [2]; above 100 µM in [3]; above 100 µM in [5]; above 100 µM in [6]; above 100 µM in [7]. Moreover, the TGI in experiment [8] was above 100 µM; in [9], 41.5 µM; in experiment [20], above 100 µM; in [10], above 100 µM; in experiment [11], above 100 µM; in experiment [12], above 100 µM. Also, the TGI was above 100 µM in experiment [13]; 37.5 µM in experiment [15]; above 100 µM in experiment [16]; above 100 µM in experiment [17]; 43.7 µM in experiment [18]; 82.5 µM in [19].
With `C[C@]12CC(c3ccccc3O1)C(C#N)C(=O)N2` (some centres not stated), the TGI in experiment [1], in experiment [2], in experiment [3], in experiment [4], in experiment [5] and in experiment [6] was above 100 µM throughout. Further, the TGI in experiment [7], in experiment [8], in experiment [9], in [20], in experiment [10] and in experiment [11] was above 100 µM each time. Also, the TGI in [12], in experiment [13], in experiment [15], in [16], in experiment [17] and in experiment [18] was above 100 µM throughout. Also, the TGI in [19] is above 100 µM.
`CC1=CCC[C@@](C)(O)[C@@H]2C[C@H]3C(CSc4ccccc4)C(=O)O[C@H]3[C@@H](O2)[C@H](C)CCC1` (some centres not stated): the TGI is 34.1 µM in experiment [1]; 85.1 µM in experiment [2]; 93.2 µM in experiment [3]; 63.2 µM in experiment [4]; above 100 µM in [5]; 20.4 µM in experiment [6]. Moreover, the TGI in experiment [8] was found to be 29.4 µM; in experiment [9], 32.1 µM; in [10], 45 µM; in [11] it was 27.1 µM; in experiment [12], 72 µM; in [13], 25.5 µM. In addition, the TGI in [14] was 24.1 µM; in experiment [15], 93.7 µM; in experiment [16], 34.5 µM; in experiment [17], 26.9 µM; in experiment [18] it was 30.3 µM; in experiment [19], above 100 µM.
In the case of `O=[N+]([O-])/C(Cl)=C(\Nc1ccccc1)C(Cl)=C(Cl)Cl`, the TGI was 94.5 µM in [1]; 79 µM in experiment [2]; above 100 µM in [4]; 68.6 µM in experiment [5]; above 100 µM in experiment [6]; 78 µM in experiment [7]. Moreover, the TGI in [8] stood at 60.4 µM; in experiment [9] it was 45.9 µM; in experiment [20], 69.9 µM; in experiment [10], 65.4 µM; in [11], 95 µM; in experiment [12], 35.1 µM. In addition, the TGI was above 100 µM in experiment [13]; above 100 µM in [14]; above 100 µM in [15]; 56.6 µM in experiment [16]; 58.4 µM in experiment [17]; 94.4 µM in [18]. Besides, the TGI in experiment [19] is 42.9 µM.
Consider `COc1cc2c(cc1OC)C1C(O)C(OC)C=C3CC[N+](C)(C2)C31` (configuration not stated), for which the TGI in [1], in experiment [2], in experiment [3], in experiment [4], in experiment [6] and in experiment [7] was above 100 µM in each case. Besides, the TGI in experiment [8], in experiment [9], in experiment [20], in experiment [10], in [11] and in experiment [12] was above 100 µM throughout. The TGI in experiment [13], in experiment [14], in experiment [15], in experiment [16], in experiment [17] and in experiment [18] was above 100 µM each time. For the same compound, in [19], the TGI is above 100 µM.
For `COc1ccc(-c2c3c(n(C4OC(CO)C(O)C(O)C4O)c(=S)c2C#N)CC(C)(C)CC3=O)cc1` (configuration not stated), the TGI in experiment [1], in experiment [2], in experiment [5], in experiment [6], in [7] and in experiment [8] was above 100 µM in each case. The TGI in [9], in experiment [20], in experiment [10], in [11], in experiment [12] and in experiment [13] was above 100 µM throughout. Further, the TGI in [14], in experiment [15], in experiment [16], in experiment [17], in experiment [18] and in [19] was above 100 µM in each case.
On to `CN(C)c1ncnc2c1ncn2C1C=CC(COS(N)(=O)=O)C1` (configuration not stated), for which the TGI in experiment [1], in [2], in experiment [3], in [4], in [5] and in [6] was above 100 µM each time. The TGI in [8], in experiment [9], in experiment [20], in experiment [10], in [11] and in experiment [12] was above 100 µM throughout. In addition, the TGI in experiment [13], in [14], in experiment [15], in experiment [16], in [17] and in [18] was above 100 µM throughout. The TGI in [19] is above 100 µM.
Regarding `CO[C@@](c1ccccc1)(c1nc(C#N)c(N)o1)C(F)(F)F`, the TGI in experiment [1], in experiment [2], in experiment [3], in [4], in [5] and in experiment [7] was above 100 µM each time. Also, the TGI in experiment [8], in experiment [9], in [10], in experiment [11], in [12] and in experiment [13] was above 100 µM in each case. Moreover, the TGI in experiment [14] is above 100 µM; in [15] it was above 100 µM; in experiment [16], above 100 µM; in experiment [17], above 100 µM; in experiment [18], above 100 µM; in experiment [19] it was 74.7 µM.
Consider `O=C1Nc2ccccc2[C@]12C[C@H]2c1ccccn1`, for which the TGI in experiment [1], in [2], in [3], in experiment [4], in experiment [5] and in experiment [6] was above 100 µM in each case. For the same compound, the TGI in experiment [7], in experiment [8], in experiment [9], in experiment [10], in experiment [11] and in experiment [12] was above 100 µM throughout. The TGI in [13], in [14], in [15], in [16], in experiment [17] and in experiment [18] was above 100 µM in each case. Also, the TGI in [19] is above 100 µM.
In the case of `COc1cc(C)cc2c1C(=O)C(Br)=CC2=O`, the TGI in experiment [1] worked out at 23.3 µM; in experiment [2], 31.7 µM; in experiment [3], 3.62 µM; in experiment [4], 33.4 µM; in [6], 38.4 µM; in experiment [7] it was 32.3 µM. Besides, the TGI in experiment [8] was 21.6 µM; in experiment [9] it was 4.73 µM; in experiment [20] it was 35 µM; in experiment [10], 34.5 µM; in experiment [11], 43.4 µM; in experiment [12], 5.68 µM. For the same compound, the TGI in experiment [13] is 6.96 µM; in [14], 11.3 µM; in experiment [15], 4.75 µM; in experiment [16] it was 32.5 µM; in experiment [17], 14.1 µM; in [18] it was 35 µM. In addition, the TGI in [19] amounted to 3.92 µM.
Regarding `CCCCSC1=N/C(=C\c2ccco2)C(=O)N1`, the TGI in experiment [1], in experiment [2], in experiment [3], in experiment [4], in experiment [6] and in [7] was above 100 µM each time. Besides, the TGI in experiment [8], in [9], in experiment [20], in experiment [10], in [11] and in experiment [12] was above 100 µM in each case. The TGI in experiment [13], in experiment [14], in experiment [15], in experiment [16], in [17] and in [18] was above 100 µM throughout. Besides, in [19], the TGI was above 100 µM.
Turning to `CN(C)c1ccc(/C=C2\N=C(N/N=C/c3ccccc3)NC2=O)cc1`, the TGI in experiment [1], in experiment [2], in experiment [3], in experiment [4], in experiment [6] and in experiment [7] was above 100 µM in each case. Besides, the TGI in experiment [8], in experiment [9], in [20], in experiment [10], in experiment [11] and in experiment [12] was above 100 µM in each case. For the same compound, the TGI in experiment [13], in experiment [14], in experiment [15], in experiment [16], in experiment [17] and in experiment [18] was above 100 µM throughout. This compound registered a TGI in experiment [19] above 100 µM.
`CC(=O)OCC1OC(n2c3c(c(-c4ccc(Cl)cc4)c(C#N)c2=S)C(=O)CC(C)(C)C3)C(OC(C)=O)C(OC(C)=O)C1OC(C)=O` (configuration not stated): the TGI in experiment [1] was 27.8 µM; in experiment [2], above 100 µM; in [3], above 100 µM; in [5], above 100 µM; in experiment [6], above 100 µM; in experiment [7] it was above 81 µM. In addition, the TGI was above 95.3 µM in experiment [8]; above 100 µM in experiment [9]; above 72.2 µM in [20]; 87.9 µM in experiment [10]; above 100 µM in experiment [11]; above 69.6 µM in experiment [12]. In addition, the TGI in experiment [13] was above 100 µM; in experiment [14], above 78.5 µM; in [15], above 27.7 µM; in [16], above 100 µM; in [17] it was above 100 µM; in [18] it was 27.9 µM. In experiment [19], this compound gave a TGI above 100 µM.
